Assay results: patent US9663516B2, “Bicyclic-pyrimidinedione compounds” (MyoKardia, Inc., priority 2014, dated 2017)

Experiments:
[1] = tested on: adult rat ventricular myocytes; experiment: Cardiomyocyte contractility assay (fractional shortening, IonOptix edge detection); format: cell-based; details: 1 Hz pacing; for inhibition at 1 µM / inhibition at 0.3 µM / inhibition at 0.1 µM: Ventricular myocyte; for inhibition at 1 µM: 1.0 μM compound; for inhibition at 0.1 µM: 0.1 μM compound
Method: Contractility of adult rat ventricular myocytes is determined by edge detection with an IonOptix contractility system. Aliquots of myocytes in Tyrode buffer (137 mM NaCl, 3.7 mM KCL, 0.5 mM MgCl2, 1.5 mM CaCl2, 4 mM HEPES, 11 mM glucose) are placed in a perfusion chamber (Series 20 RC-27NE; Warner Instruments), allowed to adhere to the coverslip, and then perfused with 37° C. Tyrode buffer. Myocytes are filed stimulated at 1 Hz and 10V. Only myocytes with clear striations, quiescent prior to pacing, with a cell length of 120-180 microns, a basal fractional shortening equal to 3-8% of the cell length, and a contraction velocity greater than 100 microns per second are used for contractility experiments. To determine the response to compounds, myocytes are first perfused for 60 seconds with Tyrodes buffer followed by 5 minutes of compound and a 140 second washout with Tyrodes buffer. Data is continuously recorded using IonOptix software. Contractility data is analyzed using Ionwizard software (IonOptix). For each cell, 10-20 contractility transients were averaged and compared under basal (no compound) and compound-treated conditions. Compound activity is measured by effects on fractional shortening (FS), where fractional shortening is the ratio of the peak length of the cell at contraction divided by the basal cell length normalized to 100% for an untreated cell.

bovine cardiac myosin = bovine cardiac myosin (Bos taurus, UniProt Q9BE39); experiment: Myosin inhibition assay (PK/LDH-coupled ATPase, bovine cardiac myofibrils); format: biochemical; details: calcium concentration giving 50% activation, pH 6.8, read-out: bcMF pCa_6 IC50
Chain of bovine cardiac myosin (Q9BE39 whole entry): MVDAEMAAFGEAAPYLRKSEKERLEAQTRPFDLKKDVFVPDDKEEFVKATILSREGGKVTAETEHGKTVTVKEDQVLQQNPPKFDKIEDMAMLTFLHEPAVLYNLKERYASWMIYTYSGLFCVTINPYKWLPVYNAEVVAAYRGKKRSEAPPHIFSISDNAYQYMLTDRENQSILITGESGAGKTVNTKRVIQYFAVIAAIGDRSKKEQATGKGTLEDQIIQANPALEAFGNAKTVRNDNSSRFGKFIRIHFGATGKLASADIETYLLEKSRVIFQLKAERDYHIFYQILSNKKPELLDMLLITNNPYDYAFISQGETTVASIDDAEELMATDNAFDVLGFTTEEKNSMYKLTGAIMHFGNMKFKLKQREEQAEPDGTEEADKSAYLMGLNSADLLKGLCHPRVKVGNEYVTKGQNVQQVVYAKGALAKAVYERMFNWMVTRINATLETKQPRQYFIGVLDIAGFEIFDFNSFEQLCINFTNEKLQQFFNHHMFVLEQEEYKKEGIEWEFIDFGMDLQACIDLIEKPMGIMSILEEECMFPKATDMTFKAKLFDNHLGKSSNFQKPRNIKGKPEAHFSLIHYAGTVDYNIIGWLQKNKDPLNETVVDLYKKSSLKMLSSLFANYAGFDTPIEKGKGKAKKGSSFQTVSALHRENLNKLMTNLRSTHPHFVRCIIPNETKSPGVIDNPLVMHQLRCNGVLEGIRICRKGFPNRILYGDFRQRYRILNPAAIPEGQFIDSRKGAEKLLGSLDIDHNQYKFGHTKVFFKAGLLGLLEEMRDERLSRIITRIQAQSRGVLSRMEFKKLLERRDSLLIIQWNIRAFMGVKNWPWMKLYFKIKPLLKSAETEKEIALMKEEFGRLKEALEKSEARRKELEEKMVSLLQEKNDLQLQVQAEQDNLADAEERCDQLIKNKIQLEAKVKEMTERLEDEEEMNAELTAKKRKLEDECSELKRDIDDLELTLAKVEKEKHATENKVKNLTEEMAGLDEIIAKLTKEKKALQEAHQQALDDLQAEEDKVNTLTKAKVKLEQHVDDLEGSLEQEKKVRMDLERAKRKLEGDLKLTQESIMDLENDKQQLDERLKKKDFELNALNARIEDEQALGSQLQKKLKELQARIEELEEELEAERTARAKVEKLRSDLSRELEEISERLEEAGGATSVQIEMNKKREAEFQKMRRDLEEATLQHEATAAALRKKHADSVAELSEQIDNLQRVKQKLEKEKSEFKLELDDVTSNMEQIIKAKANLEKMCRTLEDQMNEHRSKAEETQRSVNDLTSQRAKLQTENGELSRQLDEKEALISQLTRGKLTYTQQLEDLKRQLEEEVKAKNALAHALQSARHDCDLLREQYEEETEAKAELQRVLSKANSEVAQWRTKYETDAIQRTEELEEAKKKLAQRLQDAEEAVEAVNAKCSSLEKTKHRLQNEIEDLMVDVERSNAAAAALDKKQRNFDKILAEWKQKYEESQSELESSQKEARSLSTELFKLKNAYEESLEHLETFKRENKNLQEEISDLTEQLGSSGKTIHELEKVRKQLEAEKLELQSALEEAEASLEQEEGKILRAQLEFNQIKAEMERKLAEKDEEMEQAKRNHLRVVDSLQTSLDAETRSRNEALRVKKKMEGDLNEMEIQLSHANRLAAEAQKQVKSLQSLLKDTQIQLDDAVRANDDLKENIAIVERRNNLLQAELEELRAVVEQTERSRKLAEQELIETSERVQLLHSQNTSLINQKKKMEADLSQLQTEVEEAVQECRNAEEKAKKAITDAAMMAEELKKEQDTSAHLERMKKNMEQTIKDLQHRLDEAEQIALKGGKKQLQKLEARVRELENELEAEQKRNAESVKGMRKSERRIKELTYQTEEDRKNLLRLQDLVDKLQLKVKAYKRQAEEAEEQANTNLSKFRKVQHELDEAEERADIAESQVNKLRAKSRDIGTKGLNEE
Chain of bovine cardiac myosin (P85100 whole entry partner): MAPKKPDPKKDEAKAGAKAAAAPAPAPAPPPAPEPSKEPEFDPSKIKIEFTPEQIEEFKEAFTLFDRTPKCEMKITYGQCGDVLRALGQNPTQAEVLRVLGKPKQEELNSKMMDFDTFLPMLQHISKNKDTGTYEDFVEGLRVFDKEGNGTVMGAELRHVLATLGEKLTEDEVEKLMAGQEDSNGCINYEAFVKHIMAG
Chain of bovine cardiac myosin (Q3SZE5 whole entry partner): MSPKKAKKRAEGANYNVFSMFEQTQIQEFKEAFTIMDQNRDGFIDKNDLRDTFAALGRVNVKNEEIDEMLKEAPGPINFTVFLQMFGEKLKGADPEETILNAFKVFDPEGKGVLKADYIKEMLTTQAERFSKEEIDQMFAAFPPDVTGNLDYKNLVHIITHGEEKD

Row | Compound | inhibition at 1 µM [1] [%] | IC50 (bovine cardiac myosin) [nM] | inhibition at 0.3 µM ([1]; 0.3 μM compound) [%] | inhibition at 0.1 µM [1] [%] | Activity at 0.3 μM (fractional shortening inhibition) ([1]; 0.3 μM compound)
1 | CCn1c(=O)[nH]c2c(c1=O)CC[C@H](C1CCC(F)(F)CC1)N2 [Compound 53] | 33 to 66 | 1000 to 15000 | – | – | –
2 | CC(C)n1c(=O)[nH]c2c(c1=O)CC[C@H](c1ccc(F)cc1)N2 [Compound 67] | – | 1000 to 15000 | 33 to 66 | – | –
3 | CC(C)n1c(=O)[nH]c2c(c1=O)CC[C@H](c1cccc(F)c1)N2 [Compound 68, (R)-7-(3-Fluorophenyl)-3-isopropyl-5,6,7,8-tetrahydropyrido[2,3-d]pyrimidine-2,4(1H,3/H)-dione] | – | 1000 to 15000 | – | > 66 | –
4 | CC(C)n1c(=O)[nH]c2c(c1=O)CC[C@H](c1ccccc1F)N2 [Compound 69, (R)-7-(2-Fluorophenyl)-3-isopropyl-5,6,7,8-tetrahydropyrido[2,3-d]pyrimidine-2,4(1H,3H)-dione] | – | 1000 to 15000 | – | > 66 | –
5 | O=c1[nH]c2c(c(=O)n1CC(F)(F)F)CC[C@H](c1ccc(F)c(F)c1)N2 [Compound 70] | 33 to 66 | 1000 to 15000 | – | – | –
6 | CC1(n2c(=O)[nH]c3c(c2=O)CC[C@H](c2ccc(F)c(F)c2)N3)CC1 [Compound 81] | 33 to 66 | 1000 to 15000 | – | – | –
7 | CC[C@@H](C)n1c(=O)[nH]c2c(c1=O)CC[C@H](c1ccc(F)c(F)c1)N2 [Compound 83] | – | < 1000 | 33 to 66 | – | –
8 | CC(C)n1c(=O)[nH]c2c(c1=O)CC[C@](C)(c1ccccc1)N2 [Compound 106] | – | < 1000 | – | > 66 | –
9 | CC(C)n1c(=O)[nH]c2c(c1=O)CC(F)(F)[C@H](c1ccccc1)N2 [Compound 116, (S)-6,6-Difluoro-3-isopropyl-7-phenyl-5,6,7,8-tetrahydropyrido[2,3-d]pyrimidine-2,4(1H,3H)-dione] | > 66 | 1000 to 15000 | 33 to 66 | – | –
10 | (R)-3-Isopropyl-7-phenyl-7,8-dihydropyrido[2,3-d]pyrimidine-2,4,5(1H,3H,6H)-trione [Compound 1] | – | 1000 to 15000 | – | – | ++ (++ represents fractional shorting inhibition values from 33% to 66%)
